Measurements published in patent US20240374631A1, “A COMPOSITION FOR IMPROVING GUT MICROBIOTA, BEHAVIOURAL PATTERN, ALPHA-SYNUCLEIN LEVELS, SLEEP PATTERN AND/OR SERUM MELATONIN” (GN Corporation Co Ltd, priority 2021, published 2024).

Tested on: gut microbiota
Experiment: Gut microbiome analysis (16S rRNA sequencing of fecal samples) in STAM model of NASH
Assay type: in vivo, C57BL/6J mice
Conditions: post-intervention
Description: The study is reported in accordance with Animal Research: Reporting of In Vivo Experiments (ARRIVE) guidelines. C57BL/6J mice were obtained from Japan SLC, Inc. (Japan). All animals used in this study were cared for under the following guidelines: Act on Welfare and Management of Animals (Ministry of the Environment, Japan, Act No. 105 of Oct. 1, 1973), standards relating to the care and management of laboratory animals and relief of pain (Notice No. 88 of the Ministry of the Environment, Japan, Apr. 28, 2006) and the guidelines for proper conduct of animal experiments (Science Council of Japan, Jun. 1, 2006). Protocol approvals were obtained from SMC Laboratories, Japan's IACUC (Study reference no: […] Mice were maintained in a specific pathogen-free (SPF) facility under controlled conditions of temperature (23±3° C.), humidity (50±20%), lighting (12-hour artificial light and dark cycles; light from 8:00 to 20:00) and air exchange. The STAM model of NASH was induced as previously described [D10]. Mice were given a single subcutaneous injection of 200 μg streptozotocin (STZ, Sigma-Aldrich, USA) solution 2 days after birth and fed with a high-fat diet (HFD, 57 kcal % fat, Cat #HFD32, CLEA Japan, Inc., Japan) from 4-9 weeks of age. All mice develop liver steatosis and diabetes and at […] mice had established steatohepatitis, histologically. Studygroups: There were five study groups, described below. Eight mice were included in each study group. Eight NASH mice were orally administered vehicle supplemented with AFO-202 Beta Glucan at a dose of 1 mg/kg in a volume of 5 mL/kg once daily from 6 to 9 weeks of age. Eight NASH mice were orally administered vehicle supplemented with Telmisartan at a dose of 10 mg/kg once daily from 6 to 9 weeks of age. Frequency: Fecal samples were collected at the 6 weeks of age (before administration) and 9 weeks of age (before sacrifice). Procedure: At 6 weeks of age, fecal samples were collected from each mouse by clean catch method. […] A sterile petri dish was placed on the bench. Gently massage the abdomen, position the bottom of mouse over a fresh petri dish, and collect 1-2 fecal pellets. At sacrifice, fecal samples were aseptically collected from cecum. The tubes with feces were placed on ice immediately. These tubes were snap frozen in liquid nitrogen and stored at -80° C. for shipping. In this analysis, the 16S rRNA sequence data acquired by the next-generation sequencer from the fecal […] was used to perform community analysis using the QIIME2 program for microbial community analysis. The raw read data in FASTQ format output from the next-generation sequencer was trimmed to remove adapter sequences and low QV regions that may be included in the data. Cutadapt was used to remove adapter sequences from DNA sequencing reads. Trimmomatic was used as read trimming tool for Illumina NGS data. The adapter sequence was trimmed using the adapter trimming program “cutadapt” if the Trimming of the region at the end of the read sequence overlapped the corresponding sequence by at least one base (mismatch tolerance: 20%). When reads containing N were present in at least one of Read1 and Read2, both Read1 and Read2 were removed. Trimming of low QV regions was performed on the read data after processing using the QV trimming program “Trimmomatic” under the following conditions. The window of 20 bases is slid from the 5' side, and the area where the average QV is less than 20 is trimmed. After trimming, only the reads with more than 50 bases remaining in both Read1 and Read2 were taken as output. The microbial community analysis based on 16S rRNA sequence was performed on the sequence data trimmed in the previous section using the microbial community analysis program “QIIME2”. The annotation program “sklearn” included in QIIME2 is used to annotate the ASV (OTU) sequences. […]

CCCc1nc2c(C)cc(-c3nc4ccccc4n3C)cc2n1Cc1ccc(-c2ccccc2C(=O)O)cc1 [Telmisartan]
Abundance: S24-7, —, — (line r298): 0
Abundance: Lachnospiraceae, —, — (line r300): 60
Abundance: Ruminococcaceae, Oscillospira, — (line r301): 30
Abundance: S24-7, —, — (line r302): 0
Abundance: —, —, — (line r303): 107
Abundance: Ruminococcaceae, Oscillospira, — (line r304): 9
Abundance: Bacteroidaceae, Bacteroides, acidifaciens (line r305): 0
Abundance: Bacteroidaceae, Bacteroides, acidifaciens (line r306): 11
Abundance: Lachnospiraceae, Dorea, — (line r307): 8
Abundance: Ruminococcaceae, Other, Other (line r308): 11
Abundance: Lachnospiraceae, —, — (line r309): 13
Abundance: Lachnospiraceae, —, — (line r310): 0
Abundance: S24-7, —, — (line r311): 1
Abundance: Lachnospiraceae, Other, Other (line r312): 0
Abundance: —, —, — (line r313): 0
Abundance: Ruminococcaceae, Oscillospira, — (line r314): 9
Abundance: Ruminococcaceae, Oscillospira, — (line r315): 0
Abundance: Lachnospiraceae, —, — (line r316): 19
Abundance: Erysipelotrichaceae, —, — (line r317): 0
Abundance: S24-7, —, — (line r318): 0
Abundance: Lachnospiraceae, —, — (line r319): 9
Abundance: Ruminococcaceae, Oscillospira, — (line r320): 0
Abundance: Lachnospiraceae, —, — (line r321): 14
Abundance: Other, Other, Other (line r322): 0
Abundance: F16, —, — (line r323): 0
Abundance: Christensenellaceae, —, — (line r324): 5
Abundance: Lachnospiraceae, Other, Other (line r325): 0
Abundance: Ruminococcaceae, Oscillospira, — (line r326): 0
Abundance: —, —, — (line r327): 0
Abundance: Ruminococcaceae, Other, Other (line r328): 0
Abundance: —, —, — (line r329): 0
Abundance: Lachnospiraceae, Other, Other (line r330): 0
Abundance: Other, Other, Other (line r331): 0
Abundance: Enterococcaceae, Vagococcus, — (line r332): 26
Abundance: Ruminococcaceae, Ruminococcus, — (line r333): 0
Abundance: Erysipelotrichaceae, Coprabacillus, — (line r334): 0
Abundance: Other, Other, Other (line r335): 0
Abundance: Ruminococcaceae, Oscillospira, — (line r336): 9
Abundance: Ruminococcaceae, Oscillospira, — (line r337): 0
Abundance: —, —, — (line r338): 0
Abundance: Lachnospiraceae, —, — (line r339): 0
Abundance: Ruminococcaceae, Oscillospira, — (line r340): 31
Abundance: Lachnospiraceae, Coprococcus, — (line r341): 0
Abundance: Ruminococcaceae, Other, Other (line r342): 5
Abundance: —, —, — (line r343): 0
Abundance: Erysipelotrichaceae, —, — (line r344): 2
Abundance: Rikenellaceae, —, — (line r345): 11
Abundance: —, —, — (line r346): 0
Abundance: —, —, — (line r347): 40
Abundance: —, —, — (line r348): 0
Abundance: Lachnospiraceae, —, — (line r349): 0
Abundance: —, —, — (line r350): 0
Abundance: Lachnospiraceae, Clostridium, Other (line r351): 28
Abundance: Erysipelotrichaceae, —, — (line r352): 0
Abundance: Streptococcaceae, Streptococcus, minor (line r353): 0
Abundance: Ruminococcaceae, Oscillospira, — (line r354): 0
Abundance: —, —, — (line r355): 0
Abundance: Lachnospiraceae, Other, Other (line r356): 0
Abundance: Other, Other, Other (line r357): 0
Abundance: —, —, — (line r358): 0
Abundance: —, —, — (line r359): 0
Abundance: Lachnospiraceae, —, — (line r362): 12
Abundance: Streptococcaceae, Streptococcus, — (line r363): 0
Abundance: S24-7, —, — (line r365): 0
Abundance: Other, Other, Other (line r367): 42
Abundance: [Mogibacteriaceae], —, — (line r368): 0
Abundance: Enterobacteriaceae, Enterobacter, Other (line r369): 0
Abundance: Erysipelotrichaceae, —, — (line r371): 19
Abundance: Aerococcaceae, Aerococcus, — (line r372): 39
Abundance: Ruminococcaceae, Oscillospira, — (line r373): 0
Abundance: Ruminococcaceae, Oscillospira, — (line r374): 12
Abundance: Other, Other, Other (line r375): 0
Abundance: Lachnospiraceae, Coprococcus, — (line r377): 0
Abundance: Other, Other, Other (line r378): 0
Abundance: Family Lachnospiraceae, Genus Other, Species Other (table row r380): 0
Abundance: Family Ruminococcaceae, Genus Oscillospira, Species — (table row r381): 0
Abundance: Family S24-7, Genus —, Species — (table row r382): 0
Abundance: Family Ruminococcaceae, Genus Ruminococcus, Species — (table row r383): 0
Abundance: Family Ruminococcaceae, Genus Oscillospira, Species — (table row r384): 0
Abundance: Family Ruminococcaceae, Genus Ruminococcus, Species — (table row r389): 0
Abundance: Family Lachnospiraceae, Genus —, Species — (table row r390): 0
Abundance: Family Ruminococcaceae, Genus Oscillospira, Species — (table row r391): 0
Abundance: Family Corynebacteriaceae, Genus Corynebacterium, Species stationis (table row r394): 0
Abundance: Family Ruminococcaceae, Genus Other, Species Other (table row r395): 0
Abundance: Family S24-7, Genus —, Species — (table row r396): 13
Abundance: Family Ruminococcaceae, Genus Oscillospira, Species — (table row r397): 26
Abundance: Family Ruminococcaceae, Genus Oscillospira, Species — (table row r398): 0
Abundance: Family Ruminococcaceae, Genus Ruminococcus, Species — (table row r399): 0
Abundance: Family [Mogibacteriaceae], Genus —, Species — (table row r400): 0
Abundance: Family Erysipelotrichaceae, Genus Coprobacillus, Species — (table row r401): 0
Abundance: Family Erysipelotrichaceae, Genus Clostridium, Species cocleatum (table row r402): 1
Abundance: Family S24-7, Genus —, Species — (table row r403): 0
Abundance: Family Coriobacteriaceae, Genus —, Species — (table row r404): 0
Abundance: Family Coriobacteriaceae, Genus Adlercreutzia, Species — (table row r405): 0
Abundance: Family Enterococcaceae, Genus Vagococcus, Species — (table row r407): 0
Abundance: Family [Mogibacteriaceae], Genus —, Species — (table row r409): 6
Abundance: Family S24-7, Genus —, Species — (table row r413): 11
Abundance: Family Ruminococcaceae, Genus Oscillospira, Species — (table row r414): 0
Abundance: Family Planococcaceae, Genus Sporosarcina, Species — (table row r415): 0
Abundance: Family Erysipelotrichaceae, Genus Other, Species Other (table row r417): 0
Abundance: Family Ruminococcaceae, Genus Ruminococcus, Species — (table row r419): 0
Abundance: Family Coriobacteriaceae, Genus Adlercreutzia, Species — (table row r423): 0
Abundance: Family Other, Genus Other, Species Other (table row r424): 0
Abundance: Family Ruminococcaceae, Genus Other, Species Other (table row r425): 0
